According to patent US10131652B2, “Pyrimidinyloxy benzene derivatives as herbicides” (E. I. DU PONT DE NEMOURS AND COMPANY, priority 2014, dated 2018):

How the values were obtained:
Type in all cases: in vivo
Details in all cases: scale 0 to 100
[1] = test system: soybean (Glycine max); assay: Test F pre-/postemergence plant response
Procedure, shortened: (§1)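 Visual control ratings were scored 0 (no effect) to 100 (complete control) versus untreated plants after 14–21 greenhouse days. Compounds, formulated in a surfactant-containing non-phytotoxic solvent, were applied both to silt loam at planting (preemergence) and to 1- to 4-leaf plants 2–18 cm tall (postemergence).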

[2] = test system: Italian ryegrass (Lolium multiflorum); assay: Test F pre-/postemergence plant response
Procedure, shortened: as §1

[3] = test system: Brazilian crabgrass (Digitaria horizontalis); assay: Test F pre-/postemergence plant response
Procedure, shortened: as §1

[4] = test system: sandbur (southern sandbur, Cenchrus echinatus); assay: Test F pre-/postemergence plant response
Procedure, shortened: as §1

[5] = test system: barnyardgrass (Echinochloa crus-galli); assay: Test F pre-/postemergence plant response
Procedure, shortened: as §1

[6] = test system: dayflower (Virginia (VA) dayflower, Commelina virginica); assay: Test F pre-/postemergence plant response
Procedure, shortened: as §1

[7] = test system: waterhemp_RES2 (ALS & HPPD resistant common waterhemp, Amaranthus rudis); assay: Test F postemergence plant response
Procedure: (§2) At the same time, plants from these crop and weed species and also waterhemp_RES1, (ALS & Triazine resistant common waterhemp, Amaranthus rudis), and waterhemp_RES2, (ALS & HPPD resistant common waterhemp, Amaranthus rudis) were treated with postemergence applications of test chemicals formulated in the same manner. Plants ranged in height from 2 to 18 cm for postemergence treatments (1- to 4-leaf stage).
(§3) Treated plants and controls were maintained in a greenhouse for 14 to 21 days, after which time all species were compared to controls and visually evaluated. Plant response ratings, summarized in Table F, are based on a scale of 0 to 100 where 0 is no effect and 100 is complete control. A dash (-) response means no test result.

[8] = test system: waterhemp_RES1 (ALS & Triazine resistant common waterhemp, Amaranthus rudis); assay: Test F postemergence plant response
Procedure: as §2, §3

SMILES	Plant response rating, Soybean ([1]; 16 g ai/ha Postemergence)	Plant response rating, Soybean ([1]; 31 g ai/ha Postemergence)	Plant response rating, Soybean ([1]; 62 g ai/ha Postemergence)	Plant response rating, Soybean ([1]; 125 g ai/ha Postemergence)	Plant response rating, Ryegrass, Italian ([2]; 16 g ai/ha Postemergence)	Plant response rating, Ryegrass, Italian ([2]; 31 g ai/ha Postemergence)	Plant response rating, Ryegrass, Italian ([2]; 62 g ai/ha Postemergence)	Plant response rating, Ryegrass, Italian ([2]; 125 g ai/ha Postemergence)	Plant response rating, Crabgrass, Brazil ([3]; 16 g ai/ha Postemergence)	Plant response rating, Crabgrass, Brazil ([3]; 31 g ai/ha Postemergence)	Plant response rating, Crabgrass, Brazil ([3]; 62 g ai/ha Postemergence)	Plant response rating, Crabgrass, Brazil ([3]; 125 g ai/ha Postemergence)	Plant response rating, Sandbur ([4]; 16 g ai/ha Postemergence)	Plant response rating, Sandbur ([4]; 31 g ai/ha Postemergence)	Plant response rating, Sandbur ([4]; 62 g ai/ha Postemergence)	Plant response rating, Sandbur ([4]; 125 g ai/ha Postemergence)	Plant response rating, Barnyardgrass ([5]; 16 g ai/ha Postemergence)	Plant response rating, Barnyardgrass ([5]; 31 g ai/ha Postemergence)	Plant response rating, Barnyardgrass ([5]; 62 g ai/ha Postemergence)	Plant response rating, Barnyardgrass ([5]; 125 g ai/ha Postemergence)	further results
FC(F)c1cc(-c2ccccc2Oc2ncc(Br)cn2)on1 [Compound 212]	50	50	75	95	0	0	0	0	20	30	30	35	0	0	0	10	0	0	0	10	Plant response rating, Dayflower, VA ([6]; 16 g ai/ha Postemergence): 30; Plant response rating, Dayflower, VA ([6]; 31 g ai/ha Postemergence): 20; Plant response rating, Dayflower, VA ([6]; 62 g ai/ha Postemergence): 40; Plant response rating, Dayflower, VA ([6]; 125 g ai/ha Postemergence): 50; Plant response rating, Waterhemp_RES2 ([7]; 16 g ai/ha Postemergence): 70; Plant response rating, Waterhemp_RES2 ([7]; 31 g ai/ha Postemergence): 95; Plant response rating, Waterhemp_RES2 ([7]; 62 g ai/ha Postemergence): 98; Plant response rating, Waterhemp_RES2 ([7]; 125 g ai/ha Postemergence): 100; Plant response rating, Waterhemp_RES1 ([8]; 16 g ai/ha Postemergence): 70; Plant response rating, Waterhemp_RES1 ([8]; 31 g ai/ha Postemergence): 80; Plant response rating, Waterhemp_RES1 ([8]; 62 g ai/ha Postemergence): 95; Plant response rating, Waterhemp_RES1 ([8]; 125 g ai/ha Postemergence): 98
Fc1ccc(Oc2ncc(Cl)cn2)c(-c2cc(C(F)(Cl)Cl)on2)c1 [Compound 221]	60	95	98	95	0	0	0	5	20	25	45	75	0	0	0	0	15	25	30	70	Plant response rating, Dayflower, VA ([6]; 16 g ai/ha Postemergence): 60; Plant response rating, Dayflower, VA ([6]; 31 g ai/ha Postemergence): 70; Plant response rating, Dayflower, VA ([6]; 62 g ai/ha Postemergence): 80; Plant response rating, Dayflower, VA ([6]; 125 g ai/ha Postemergence): 80; Plant response rating, Waterhemp_RES2 ([7]; 16 g ai/ha Postemergence): 90; Plant response rating, Waterhemp_RES2 ([7]; 31 g ai/ha Postemergence): 98; Plant response rating, Waterhemp_RES2 ([7]; 62 g ai/ha Postemergence): 95; Plant response rating, Waterhemp_RES2 ([7]; 125 g ai/ha Postemergence): 100; Plant response rating, Waterhemp_RES1 ([8]; 16 g ai/ha Postemergence): 85; Plant response rating, Waterhemp_RES1 ([8]; 31 g ai/ha Postemergence): 95; Plant response rating, Waterhemp_RES1 ([8]; 62 g ai/ha Postemergence): 100; Plant response rating, Waterhemp_RES1 ([8]; 125 g ai/ha Postemergence): 98
